Here are results for three compounds from patent US8609639B2, “Stat3 inhibitor having anti-cancer activity and methods” (University of South Florida, priority 2006, dated 2013).

Each structure is given as a SMILES string. Residues, ends and D or L forms follow the SMILES beside them. *: point of attachment. Cbz = O=C(OCc1ccccc1)*

Data set [1] concerns Stat3-YFP in NIH3T3/v-Src/Stat3-YFP fibroblasts. Briefly: Fluorescence and confocal microscopy of Stat3-YFP signal. Type of data set: cell-based, mouse. More on the design: Stat3-YFP fluorescence signal: dose or concentration left out as unconfirmed. Particulars: for aggregated bodies (aggresomes) of Stat3-YFP: within 5 h of treatment, laser scanning confocal microscopy; for Stat3-YFP fluorescence signal: S3I-M2001, loss evident from 2-5 h, MG132 alone.
Description: NIH3T3/vSrc cells were either stably transfected with Stat3-YFP construct (23), or growing in 96-well plates on chamber slides were transiently transfected with the Stat3-YFP plasmid (23) using Lipofectamine 2000 for 24 h according to the manufacturer's protocol (Roche), treated with or without S3I-M2001 for different times, and examined under Nikon Eclipse TE200 fluorescence microscope (Nikon). Images were captured and processed by NIKON NIS element-Basic research software.
Specimens were then washed 5 times with PBS, covered with cover slides with [sequence] mounting medium containing DAPI, and examined immediately under Leica TCS SP5 confocal microscope (Germany) at appropriate wavelengths depending on GFP or YFP. Images were captured and processed using the Leica TCS SP 5 software.

Data set [2] deals with GFP in NIH3T3/v-Src/GFP fibroblasts.
A further data set concerns the target Lck SH2-GST (Homo sapiens, UniProt P06239). Description: Lck-SH2 domain ELISA assay. Type of data set: binding. More on the design: dose or concentration left out as unconfirmed. Conditions: S3I-M2001. The method, then: An ELISA assay for the binding of Lck-SH2 domain with its conjugate phosphopeptide, biotinyl-e-Ac-EPQpYEEIEL-OH, was carried out, as previously described (13, 22). Absorbance reading (450 nm) for the peroxidase reaction was determined with an ELISA plate reader.

In another data set the target is T1, Stat3:Stat3 (Mus musculus, UniProt P42227).
T1 construct: Nuclear extract preparations from v-Src-transformed (NIH3T3/v-Src) or EGF-stimulated NIH3T3/hEGFR fibroblasts, or tumor cell lines were subjected to EMSA; endogenous in cells; host or cells: NIH3T3/v-Src or EGF-stimulated NIH3T3/hEGFR fibroblasts (nuclear extracts)
T1 sequence (P42227 2-770 limits assumed): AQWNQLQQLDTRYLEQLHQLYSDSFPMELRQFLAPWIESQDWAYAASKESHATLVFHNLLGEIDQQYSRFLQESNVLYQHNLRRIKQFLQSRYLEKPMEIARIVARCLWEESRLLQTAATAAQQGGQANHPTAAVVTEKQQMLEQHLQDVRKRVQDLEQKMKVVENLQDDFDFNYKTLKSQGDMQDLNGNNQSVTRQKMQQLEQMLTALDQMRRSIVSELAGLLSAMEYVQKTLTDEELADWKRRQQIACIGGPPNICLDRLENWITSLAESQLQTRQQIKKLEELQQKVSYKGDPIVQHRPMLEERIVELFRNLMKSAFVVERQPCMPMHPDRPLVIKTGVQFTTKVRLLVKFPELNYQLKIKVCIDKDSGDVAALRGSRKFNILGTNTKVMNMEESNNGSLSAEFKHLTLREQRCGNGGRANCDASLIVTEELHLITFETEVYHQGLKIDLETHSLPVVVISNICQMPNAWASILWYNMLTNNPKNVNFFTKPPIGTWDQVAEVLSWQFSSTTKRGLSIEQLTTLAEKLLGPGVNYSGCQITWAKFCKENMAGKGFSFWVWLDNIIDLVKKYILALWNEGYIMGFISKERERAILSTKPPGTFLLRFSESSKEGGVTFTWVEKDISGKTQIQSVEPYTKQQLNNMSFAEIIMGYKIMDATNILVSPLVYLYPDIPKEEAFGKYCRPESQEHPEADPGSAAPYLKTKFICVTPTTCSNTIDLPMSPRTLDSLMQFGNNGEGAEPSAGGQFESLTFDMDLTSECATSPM
Description: STAT DNA-binding assay/EMSA in nuclear extracts (hSIE probe). Particulars: from EMSA IC50 values. The format is biochemical. How it is done:
(§1) Nuclear extract preparation from cells and EMSA were carried out as previously described (9-12, 16, 18, 40). Nuclear extract preparations from v-Src-transformed (NIH3T3/v-Src) or EGF-stimulated NIH3T3/hEGFR fibroblasts, or tumor cell lines were subjected to EMSA. The 32P-labeled oligonucleotide probe used was hSIE (high affinity sis-inducible element from the c-fos gene, m67 variant, as reported by Wagner et al. (42), and that binds Stat1 and Stat3. Except where indicated, inhibitor compound was pre-incubated with the nuclear extract for 30 min at room temperature prior to incubation with radiolabeled hSIE probe. Where necessary, cells were stimulated with recombinant human EGF (rhEGF) for 5-15 min prior to preparation of nuclear extracts. Bands corresponding to DNA-binding activities were scanned and quantified for each concentration of compound and plotted as percent of control (vehicle) against concentration of compound, from which the IC50 values were derived, as previously reported (9, 10, 42).

The subject of data set [3] is NIH3T3/v-Src. Description: Cell migration assay (Bio-Coat chambers). Type of data set: cell-based, mouse. More on the design: dose or concentration left out as unconfirmed. Particulars: S3I-M2001, 24 h. The method, then: (§2) Cell migration experiments were carried out using Bio-Coat migration chambers (Becton Dickinson, Franklin, N.J.) of 24-well companion plates with cell culture inserts containing […] pore size filters, according to the manufacturer's protocol. […] After 24-h incubation (37° C., 5% CO2), the filters were removed and the upper surface was wiped with a cotton-tipped applicator to remove non-migratory cells. Cells that had migrated through the filter pores and attached to bottom surface of the filter were fixed and stained. The membranes were mounted on glass slides and cells from 10 random microscopic fields (×400 magnification) were counted. Cell invasion experiments were performed using same Bio-Coat invasion chambers (Becton Dickenson), as already described, except that here, filters ([…]) were used coated with the basement membrane matrigel. Percent inhibition is calculated as 100−y, where y equals residual number of stained cells in the treated/total number in the control ×100.

Data set [4] deals with MDA-MB-435, MDA-MB-231, Panc-1 cancer cells and NIH3T3/v-Src fibroblasts. Description: WST-1 cell viability assay, cells harbouring constitutively-active Stat3. Type of data set: cell-based, human, mouse. Particulars: WST-1 and trypan blue exclusion/cell counting. The method, then: (§3) In some cases, cells were first transfected with the plasmid for the Stat3 SH2 (ST3-SH2) domain or mock-transfected (pcDNA3 empty vector) for 24 h or untransfected prior to treatment with S3I-M2001 for an additional 24-48 h. Cells were then detached and analyzed by Annexin V binding (BD Biosciences, San Diego) according to the manufacturer's protocol and Flow Cytometry to quantify the percent apoptosis.

Data set [5] deals with Panc-1. Briefly: Matrigel invasion assay. Type of data set: cell-based, human. More on the design: dose or concentration left out as unconfirmed. Conditions: matrigel-coated filters, 24 h. The method, then: as §2
In data set [6] the test system is MDA-MB-231. Briefly: Matrigel invasion assay. Particulars: matrigel-coated filters, 24 h. Type of data set: cell-based, human. On the set-up: dose or concentration left out as unconfirmed. The method, then: as §2
The target in another data set is T2, Stat3:Stat3 dimer (Homo sapiens, UniProt P40763).
T2 construct: made in house; host or cells: Sf-9 insect cells (baculovirus; co-infected with Jak1 and c-Src)
T2 sequence (P40763 whole entry): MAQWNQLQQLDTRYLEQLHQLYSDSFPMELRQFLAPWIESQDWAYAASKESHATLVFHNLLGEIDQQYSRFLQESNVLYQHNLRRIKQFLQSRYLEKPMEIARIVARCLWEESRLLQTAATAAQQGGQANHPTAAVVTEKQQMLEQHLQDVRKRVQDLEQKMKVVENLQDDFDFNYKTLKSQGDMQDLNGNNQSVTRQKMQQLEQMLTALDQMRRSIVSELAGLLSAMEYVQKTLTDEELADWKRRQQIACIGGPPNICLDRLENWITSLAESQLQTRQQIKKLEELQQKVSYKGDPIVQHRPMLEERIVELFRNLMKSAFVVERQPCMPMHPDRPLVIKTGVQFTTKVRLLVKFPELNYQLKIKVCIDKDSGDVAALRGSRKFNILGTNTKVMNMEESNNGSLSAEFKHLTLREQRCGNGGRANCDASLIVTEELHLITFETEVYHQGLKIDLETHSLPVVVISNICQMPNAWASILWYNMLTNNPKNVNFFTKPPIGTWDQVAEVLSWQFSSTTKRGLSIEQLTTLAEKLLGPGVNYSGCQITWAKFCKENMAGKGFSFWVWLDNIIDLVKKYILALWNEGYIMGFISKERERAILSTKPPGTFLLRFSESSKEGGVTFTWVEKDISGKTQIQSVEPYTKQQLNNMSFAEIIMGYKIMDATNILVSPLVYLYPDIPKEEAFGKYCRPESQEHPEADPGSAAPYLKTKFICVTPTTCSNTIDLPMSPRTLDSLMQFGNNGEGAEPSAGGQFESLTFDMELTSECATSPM
Briefly: Dissociation-reassociation analysis with EMSA (pooled lysates of activated Stat1 and Stat3). Type of data set: biochemical. Conditions: pooled lysates of activated Stat1 and Stat3, increasing concentration. An excerpt:
Infect of Sf-9 cells with Stat1, Stat3, Jak1, and c-Src recombinant baculoviruses and preparation of the cell lysates containing activated Stat1 or Stat3 have been previously described (9, 21).
In the previously reported dissociation-reassociation analysis (9, 10, 20), two independently-prepared cell lysate, one containing only activated Stat3:Stat3 dimer and the other containing only activated Stat1:Stat1 dimer (21), were mixed together and pre-treated with or without increasing concentration of S3I-M2001 and subjected to STAT DNA-binding assay with EMSA analysis.
The dissociation-reassociation analysis with EMSA analysis was performed, as previously done (10, 20).

For data set [7], the system named is NIH3T3/v-Src and Panc-1 cells. Description: Soft-agar colony formation assay, cells with active Stat3. The format is cell-based, mouse, human. Particulars: treated every three days. The method, then: (§4) Colony formation assays were carried out in six-well dishes and colonies were enumerated as previously described (19). Treatment with S3I-M2001 was initiated 1 day after seeding cells in soft-agar suspension by adding […] of medium with or without compound, and repeated every three days, until large colonies were evident.

For data set [8], the system named is Stat3 nuclear localization in EGF-stimulated NIH3T3/hEGFR. Briefly: Immunofluorescence/confocal microscopy of Stat3 nuclear localization. The format is cell-based, mouse. On the set-up: dose or concentration left out as unconfirmed. Particulars: for 3 h prior to rhEGF stimulation for 10 min.
Description: NIH3T3/hEGFR cells were grown in multi-cell plates and treated with or without S3I-M2001 for 3 h prior to stimulation by rhEGF (10 ng/ml) for 10 min or NIH3T3/vSrc cells were grown in multi-cell plates or chamber slides and cells were fixed with 4% paraformaldehyde for 15 min. Cells were washed 3 times in PBS, permeabilized with 0.2% Triton X for 5 min, and further washed 3-4 times with PBS. Specimens were then blocked in 5% goat serum for 60 min and incubated with Stat3 (Cell Signaling Technology) or Hook2 (Santa Cruz, Santa Cruz, Calif.) antibody at 1:50 dilution at 4° C. overnight. Subsequently, cells were rinsed 4-5 times in PBS, incubated with Alexa fluor 488 rabbit antibody (Molecular probe, Eugene, Oreg.) for (Stat3 detection) or NL637 goat antibody (R&D Systems, Minneapolis, Minn.) for Hook2 for 1-2 h at room temperature in the dark. Specimens were then washed 5 times with PBS, covered with cover slides with [sequence] mounting medium containing DAPI, and examined immediately under Leica TCS SP5 confocal microscope (Germany) at appropriate wavelengths depending on GFP or YFP. Images were captured and processed using the Leica TCS SP 5 software.
The subject of data set [9] is NIH3T3/v-Src. Description: Matrigel invasion assay. The format is cell-based, mouse. More on the design: dose or concentration left out as unconfirmed. Particulars: matrigel-coated filters, 24 h. The method, then:
as §2

Data set [10] deals with Panc-1. Description: Cell migration assay (Bio-Coat chambers). Type of data set: cell-based, human. Conditions: S3I-M2001, 24 h. More on the design: dose or concentration left out as unconfirmed. The method, then:
as §2

The subject of data set [11] is MDA-MB-231. Briefly: Cell migration assay (Bio-Coat chambers). The format is cell-based, human. On the set-up: dose or concentration left out as unconfirmed. Conditions: S3I-M2001, 24 h. How it is done: as §2
The subject of data set [12] is NIH3T3/v-Src, MDA-MB-231 and MDA-MB-435 cells. Description: TUNEL and Annexin V binding/Flow Cytometry apoptosis, cells harbouring aberrant Stat3. More on the design: apoptosis (Annexin V) after transfection with Stat3 SH2 domain: dose or concentration left out as unconfirmed. Type of data set: cell-based, mouse, human. The method, then:
as §3

Data set [13] concerns Bcl-xL expression in NIH3T3/v-Src and MDA-MB-435 cells. Description: Western blot analysis for Bcl-xL. The format is cell-based, mouse, human. An excerpt: (§5) Whole-cell lysates prepared in boiling SDS sample-loading buffer. i.p. from lysates using monoclonal anti-Stat3 antibody (Cell Signaling Technology), and the probing of nitrocellulose membranes with primary antibodies and detection of horseradish peroxidase-conjugated secondary antibodies by enhanced chemiluminescence (Amersham Biosciences) were done, as previously described (13, 17, 19, 21). The probes used were anti-Stat3 (Santa Cruz), anti-pTyr705Stat3 (Cell Signaling Technology), anti-YFP antibodies (Santa Cruz), anti-Bcl-xL, anti-pSrc, anti-Src, anti-pJak1, anti-Jak1, anti-pEr1/2 and anti-Erk1/2, and b-actin (Cell Signaling Technology).

Data set [14] concerns v-Src-induced Stat3-dependent pLucTKS3 luciferase reporter. Briefly: Transient transfection luciferase reporter, Stat3-dependent. The format is cell-based, mouse. Conditions: NIH3T3 fibroblasts co-transfected with v-Src.
Data set [15] concerns MDA-MB-231 tumor xenografts. Description: Human breast tumor xenografts in athymic nude mice. Type of data set: in vivo, mouse. How it is done:
Six-week-old female athymic nude mice were purchased from Harlan and maintained in the institutional animal facilities approved by the American Association for Accreditation of Laboratory Animal Care. Athymic nude mice were injected subcutaneously in the left flank area with 5×10^6 human breast cancer MDA-MB-231 cells in […] of PBS. After 5 to 10 days, tumors of a diameter of 3 mm were established. Animals were grouped so that the mean tumor sizes in all groups were nearly identical, given S3I-[…] i.v. at 5, 10 and 20 mg/kg every 2 or every 3 days for 26 days and monitored every 2 or 3 days, and tumor sizes were measured with calipers. Tumor volume was calculated according to the formula V=0.52×a2×b, where a, smallest superficial diameter, b, largest superficial diameter.

The next data set concerns NIH3T3/v-Ras. Briefly: Soft-agar colony formation assay, v-Ras transformed fibroblasts. Type of data set: cell-based, mouse. Conditions: NIH3T3/v-Ras lacking constitutively-active Stat3. The method, then:
as §4

Data set [16] concerns constitutively-active Stat3. Description: Constitutive Stat3 Tyr phosphorylation and activation in cells (EMSA, Western blot, immunocytostaining). Conditions: NIH3T3/v-Src, MDA-MB-231 and MDA-MB-435 cell lines. The format is cell-based, mouse, human. The method, then:
as §1, with “42). […]” for “42).”

For data set [17], the system named is pJak1, pSrc and pErk1/2 (MAPKs). Description: Western blot of whole-cell lysates for non-Stat3 signalling proteins. Type of data set: cell-based, mouse. Particulars: NIH3T3/v-Src fibroblasts.
From the text: as §5

Data set [18] concerns normal NIH3T3, MCF-10A, MDA-MB-453, HUVEC, HAEC and HL-60 cells. Description: TUNEL and Annexin V apoptosis, cells without aberrant Stat3. Particulars: cells that do not contain aberrant Stat3. The format is cell-based, mouse, human. How it is done:
as §3

The target of data set [19] is T3, Stat3 ubiquitination in NIH3T3/v-Src fibroblasts (Mus musculus, UniProt P42227).
T3 construct: endogenous in cells; host or cells: NIH3T3/v-Src
T3 sequence (P42227 whole entry): as the sequence (P40763 whole entry) above, with E760D counted along it
Description: Immunoblotting for ubiquitin of Stat3 immunoprecipitates. Conditions: up to 24 h treatment. Type of data set: cell-based.
From the text: as §5

Data set [20] concerns the target Stat3 activation over that of Stat1 (Mus musculus, UniProt P42227). Description: rhEGF-induced STAT activation in NIH3T3/hEGFR fibroblasts (EMSA). The format is cell-based. How it is done: as §1

Lck SH2-GST, sequence (P06239 127-224 limits assumed): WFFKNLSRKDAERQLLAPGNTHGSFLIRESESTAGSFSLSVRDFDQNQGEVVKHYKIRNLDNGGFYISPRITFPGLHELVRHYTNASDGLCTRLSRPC
Stat3 activation over that of Stat1, sequence (P42227 whole entry): as the sequence (P40763 whole entry) above, with E760D counted along it

For the compound `N.N.[Cl][Pt][Cl]` [Cisplatin, reference compound], in [1], the “aggregated bodies (aggresomes) of Stat3-YFP” value is “no such effect”.

`CC(C)C[C@@H](C=O)NC(=O)[C@H](CC(C)C)NC(=O)[C@H](CC(C)C)NC(=O)OCc1ccccc1` [MG132, reference compound] (Cbz-Leu-Leu-Leu-aldehyde): the GFP signal change entry in data set [2] was “no evidence of GFP signal change”. In addition, the Stat3-YFP fluorescence signal result in data set [1] was “no appreciable effect”.

Take `CCCCCCNC(=O)c1nc(-c2cccc3ccccc23)oc1Cc1ccc(OP(=O)(O)O)cc1` [S3I-M2001]: the “binding of Lck SH2-GST to phosphopeptide biotinyl-e-Ac-EPQpYEEIEL-OH” value at Lck SH2-GST was “minimal effect”. Further, the “preferential inhibition of Stat3 activity over Stat1” value at Stat3:Stat3 worked out at 2 fold. Further, the inhibition of migration in the data set with NIH3T3/v-Src [3] is given as 76%; in the data set with Panc-1 [10], 21%; with MDA-MB-231 [11] it was 37%. Further, the GFP signal change result in data set [2] was “no evidence of GFP signal change”. Besides, in data set [4], the “selective loss of viability of cells with constitutively-active Stat3 versus cells lacking it” value is on record as “greater than 2 fold”. The inhibition of invasion came out at 38% with Panc-1 [5], 48% with MDA-MB-231 [6] and 28% in the data set on NIH3T3/v-Src [9]. Further, the “Stat3:Stat3 DNA-binding activity in pooled lysates” value at Stat3:Stat3 dimer was “concentration-dependent diminution”. Besides, the growth in soft-agar result in [7] was “blocked growth in soft-agar”; in the data set with NIH3T3/v-Ras, “no appreciable effects”. Further, in data set [8], the “EGF-induced nuclear staining of Stat3” value is on record as “significantly attenuated”. Further, in [12] (3T3/v-Src/ST3-SH2 versus mock-transfected or untransfected, 24 h), the “apoptosis (Annexin V) after transfection with Stat3 SH2 domain” value is recorded as “diminished apoptosis”. Further, the “apoptosis (TUNEL, Annexin V)” value in data set [12] (NIH3T3/v-Src, MDA-MB-231, MDA-MB-435, 48 h (TUNEL)) is listed as “strong apoptosis”; in data set [18], “minimal effect”. Further, in data set [13], the Bcl-xL expression result is on record as “diminished Bcl-xL expression”. Moreover, the “Stat3-dependent pLucTKS3 luciferase reporter activity” value in data set [14] is reported as “inhibited”. In addition, the viability of animals result in data set [15] (highest dose applied, 20 mg kg-1 i.v.) was “remained viable”. For the same compound, the “growth of tumors (tumor volume)” value in data set [15] (i.v. 5, 10 and 20 mg kg-1 every 2 or 3 days for 26 days) was “strongly inhibited growth of tumors”. In addition, the “Stat3 activity and pTyr levels in residual tumor tissue” value in [15] (tumors T1 and T2, 3 days after last 5 mg kg-1 injection, EMSA and Western blot) is “abrogated Stat3 activity and pTyr levels”. Further, the “constitutive Stat3 Tyr phosphorylation and activation” value in data set [16] was “inhibited constitutive Stat3 Tyr phosphorylation and activation”. Besides, the “pJak1, pSrc and pErk1/2 levels” value in data set [17] is “not repressed”. The Stat3-YFP fluorescence signal result in data set [1] is “time-dependent decrease”. Also, in data set [1], the “aggregated bodies (aggresomes) of Stat3-YFP” value is listed as “accompanied by aggregated bodies”. Also, the “level of Stat3 ubiquitination” value in data set [19] was “strong and time-dependent increase”. Further, in [20], the “rhEGF-induced Stat3 activation versus Stat1” value is recorded as “preferentially inhibited”.
